This test addresses T1, IRAK4 (Homo sapiens, UniProt Q9NWZ3).
T1 construct: Degradation of IRAK4 in OCI-LY10 was quantitatively measured using Meso Scale Discovery technology; endogenous in cells; host or cells: OCI-LY10
T1 sequence (Q9NWZ3 1-460): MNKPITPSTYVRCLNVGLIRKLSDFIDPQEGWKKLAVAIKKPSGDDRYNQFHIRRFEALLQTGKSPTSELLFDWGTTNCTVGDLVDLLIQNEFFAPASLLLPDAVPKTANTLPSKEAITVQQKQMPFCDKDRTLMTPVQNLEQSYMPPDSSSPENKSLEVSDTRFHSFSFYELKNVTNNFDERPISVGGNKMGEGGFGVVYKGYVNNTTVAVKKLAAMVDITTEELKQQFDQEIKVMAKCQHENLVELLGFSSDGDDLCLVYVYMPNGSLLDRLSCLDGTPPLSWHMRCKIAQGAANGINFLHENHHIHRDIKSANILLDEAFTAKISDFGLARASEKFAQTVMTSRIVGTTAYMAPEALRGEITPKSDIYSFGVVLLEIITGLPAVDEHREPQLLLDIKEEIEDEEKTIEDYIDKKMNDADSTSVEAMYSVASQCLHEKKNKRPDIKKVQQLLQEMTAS
The experiment in a line: IRAK4 MSD Degradation in OCI-LY10. It counts as cell-based. To be noted: OCI-LY10 cells, MSD. The gist of the method:
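DC50, from a three-parameter logistic fit and reported as letter bins A (<0.01 μM), B, C, D (>0.2 μM or not tested), reflects IRAK4 loss measured by MSD electrochemiluminescence in OCI-LY10 lysates. Treatment: 8 doses, 1:3 steps, top 1 to 10 μM, 4 to 24 h, 37 °C.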

The mark [1] stands for this setting: 4 hrs incubation, read-out: IRAK4 degradation in OCI-LY10 at 4 hrs: DC50.
Setting [2] is: 24 hrs incubation, read-out: IRAK4 degradation in OCI-LY10 at 24 hrs: DC50.

Read-outs that look alike come from different tables or passages of the source.

By DC50 is commonly meant the midpoint of the concentration-degradation curve. For `Cn1c(=O)n(C2CCC(=O)NC2=O)c2cccc(OC3CCN([C@H]4CC[C@H](n5cc(NC(=O)c6cnn7ccc(N8C[C@H]9C[C@@H]8CO9)nc67)c(C(F)F)n5)CC4)CC3(F)F)c21` (stereo partly drawn) [I-756], the DC50 reads like this: under setting [1], > 200 nM; under setting [2], > 200 nM.

As for `Cn1c(=O)n(C2CCC(=O)NC2=O)c2cccc(C#CCN3CCC(C[C@H]4CC[C@H](n5cc(NC(=O)c6cnn7ccc(N8C[C@H]9C[C@@H]8CO9)nc67)c(C(F)F)n5)CC4)CC3)c21` (stereo partly drawn) [I-757], the DC50 runs as follows: under setting [1], > 200 nM; under setting [2], > 200 nM.

In the case of `Cn1c(=O)n(C2CCC(=O)NC2=O)c2cccc(C#CCN3CCC(C[C@H]4CC[C@H](n5cc6cc(NC(=O)c7cccc(C(F)(F)F)n7)ccc6n5)CC4)CC3)c21` (stereo partly drawn) [I-758], the DC50 by setting is: under setting [1], > 200 nM; under setting [2], > 200 nM.

With `Cn1c(=O)n(C2CCC(=O)NC2=O)c2cccc(C#CCN3CCC(C[C@H]4CC[C@H](n5cc6cc(NC(=O)c7cccc(C(F)(F)F)n7)ncc6n5)CC4)CC3)c21` (stereo partly drawn) [I-759], the DC50 under setting [1] is > 200 nM and the DC50 under setting [2] is > 200 nM.

For the compound `Cn1c(=O)n(C2CCC(=O)NC2=O)c2cccc(N3CC(C4CCN([C@H]5CC[C@@H](n6cc(NC(=O)c7cnn8ccc(N9C[C@H]%10C[C@@H]9CO%10)nc78)c(C(F)F)n6)CC5)CC4(F)F)C3)c21` (stereo partly drawn) [I-760], the DC50 was > 200 nM under setting [1] and > 200 nM under setting [2].

Consider `Cn1c(=O)n(C2CCC(=O)NC2=O)c2cccc(N3CC(C4CCN(C[C@H]5CC[C@H](n6cc(NC(=O)c7cnn8ccc(N9C[C@H]%10C[C@@H]9CO%10)nc78)c(C(F)F)n6)CC5)CC4(F)F)C3)c21` (stereo partly drawn) [I-761], for which the DC50 reads like this: under setting [1], > 200 nM; under setting [2], > 200 nM.

For the compound `Cn1c(=O)n(C2CCC(=O)NC2=O)c2cccc(N3CC(C4CCN([C@H]5CC[C@H](n6cc(NC(=O)c7cnn8ccc(N9C[C@H]%10C[C@@H]9CO%10)nc78)c(C(F)F)n6)CC5)CC4(F)F)C3)c21` (stereo partly drawn) [I-762], the DC50 was > 200 nM under setting [1] and > 200 nM under setting [2].

As for `Cn1c(=O)n(C2CCC(=O)NC2=O)c2cccc(N3CCN(C(=O)C[C@]4(O)CC[C@@H](n5cc(NC(=O)c6cnn7cccnc67)c(C(F)F)n5)CC4)CC3)c21` (stereo partly drawn) [I-763], the DC50 is > 200 nM under setting [1] and > 200 nM under setting [2].

Take `Cn1c(=O)n(C2CCC(=O)NC2=O)c2cccc(N3CCN(C(=O)C[C@]4(O)CC[C@@H](n5cc6cc(NC(=O)c7cccc(C(F)(F)F)n7)ncc6n5)CC4)CC3)c21` (stereo partly drawn) [I-764]: the DC50 reads like this: under setting [1], > 200 nM; under setting [2], > 200 nM.

As to `COc1cc(NC(=O)c2cccc(C(F)(F)F)n2)cc2cn([C@H]3CC[C@H](CN4CCN(c5c(F)ccc6c5n(C)c(=O)n6C5CCC(=O)NC5=O)CC4)CC3)nc12` (stereo partly drawn) [I-765], the DC50 under setting [1] was > 200 nM and the DC50 under setting [2] was > 200 nM.

With `COc1nc(NC(=O)c2cccc(C(F)(F)F)n2)cc2cn([C@H]3CC[C@H](CN4CCN(c5cccc6c5n(C)c(=O)n6C5CCC(=O)NC5=O)CC4)CC3)nc12` (stereo partly drawn) [I-766], the DC50 under setting [1] was > 200 nM and the DC50 under setting [2] was > 200 nM.

`Cn1c(NC(=O)c2cccc(C(F)(F)F)n2)cc2cn([C@H]3CC[C@H](CN4CCN(c5cccc6c5n(C)c(=O)n6C5CCC(=O)NC5=O)CC4)CC3)nc2c1=O` (stereo partly drawn) [I-767]: the DC50 was > 200 nM under setting [1] and > 200 nM under setting [2].

Take `Cc1cccc(C(=O)Nc2cc3cn([C@H]4CC[C@H](CN5CC[C@@H](c6cccc7c6n(C)c(=O)n7C6CCC(=O)NC6=O)[C@H](F)C5)CC4)nc3c(=O)n2C)n1` (stereo partly drawn) [I-768]: the DC50 is, setting by setting: under setting [1], > 200 nM; under setting [2], > 200 nM.

For `COc1nc(NC(=O)c2cccc(C(F)(F)F)n2)cc2cn([C@H]3CC[C@H](CN4CCC(c5cccc6c5n(C)c(=O)n6C5CCC(=O)NC5=O)C(F)(F)C4)CC3)nc12` (stereo partly drawn) [I-769], the DC50 under setting [1] is > 200 nM and the DC50 under setting [2] is > 200 nM.

Consider `COc1nc(NC(=O)c2cccc(C)n2)cc2cn([C@H]3CC[C@H](CN4CCC(c5cccc6c5n(C)c(=O)n6C5CCC(=O)NC5=O)C(F)(F)C4)CC3)nc12` (stereo partly drawn) [I-770], for which the DC50 reads like this: under setting [1], > 200 nM; under setting [2], > 200 nM.

The values above are taken from patent US12091411B2, “IRAK degraders and uses thereof” (Kymera Therapeutics, Inc., priority 2022, dated 2024).
